Test results published in patent US20090186809A1, “USE OF VALPROIC ACID FOR THE TOPICAL TREATMENT OF MILD TO MODERATE ACNE VULGARIS” (TOPOTARGET GERMANY AG, priority 2006, published 2009).

Key:
[1] = test system: mild to moderate facial acne vulgaris; assay: double-blind, randomized clinical study: counting of facial acne lesions; type: in vivo, human; conditions: for patients displaying for the first time a reduction of ≧30% in the total counts of all acne lesions: topical once daily, VPA 3% gel, isotretinoin 0.05% gel; for mean reduction of the number of acne lesions: day 85 compared to baseline (day 1), topical monotherapy
Experimental: This study was carried out as a double-blind, randomized study. Under informed consent patients with mild to moderate facial acne vulgaris were enrolled in the study. The treatment period was 12 weeks.
(§1) VPA was provided as a clear off-white, semi-solid 3% gel (30 mg/ml VPA). After washing the face with a mild cleanser, the gel was applied daily to the clean and dry skin once daily.
As a comparator reference therapy the retinoid isotretinoin was provided as a 0.05% gel (0.5 mg isotretinoin/g).
• Assessment of the therapeutic efficacy compared to the baseline was evaluated separately by the investigator and by the patient according to a 7-point scale • Counting of lesions in the entire face • Investigator's overall assessment of improvement by means of a photo documentation.
• efficacy: change of total count of facial acne lesions from baseline to the end of week 12 (comparing day 1 to day 85, i.e., d1, d85)
• efficacy: time to reduction of acne lesions by >30% • count of acne lesions in the face after 2, 4, 8 and 12 weeks of treatment and its percentage and absolute change to baseline • safety/tolerability: safety laboratory parameters • clinical safety • patient's assessment of local tolerability
In the clinical study described in Example 1, also the time to reduction of the total counts by ≧30% of all acne lesions treated was investigated on each visit of the patients to the study hospital. Once the reduction had reached ≧30%, the actual at this point estimated reduction rate and the day of the visit was recorded.
In the clinical study described in Example 1, the counts of acne lesions treated were also assessed as counts of different types of lesions separately, i.e., recording the number of inflammatory lesions, and recording the number of non-inflammatory lesions separately.

[2] = VPA content in blood (serum) after topical application, HPLC; type: in vivo; conditions: human, read-out: serum level of VPA
Experimental: as §1
In parallel, an analysis of the VPA content in the blood of acne vulgaris patients treated topically with a 3% VPA containing medication was performed using HPLC based methodology, and the results are presented in FIG. 3. […] These serum concentration levels were measured after daily treatment with up to approx. 2.000 mg of a 3% VPA containing medication topically applied which refers to a total daily dose of VPA approx. 60 mg. If more or larger lesions would be treated, and therefore higher daily amounts of VPA would be topically applied, it is expected that accordingly higher serum levels may be obtained.

[3] = patients' assessment of local tolerability (5-point scale) and adverse events; type: in vivo, human; conditions: for assessments of local tolerability graded "acceptable" / assessments of local tolerability graded "poor" / assessments of local tolerability graded "well": percentage of all patient assessments over the study visits, topical
Experimental: • Safety laboratory parameters • Clinical safety examinations • Adverse events • Patient's assessment of local tolerability according to a 5-point scale.
In addition to the assessment of the therapeutical efficacy, the patients' assessments of local tolerability and the side effect profile was recorded in this clinical study described in example 1. FIG. 4 summarizes the patients' assessments of local tolerability which was recorded on each visit of the patients during the study period which took place on days 14, 24, 56 and 85. The patients assessed their perception of local tolerability according to the following grading scheme: […]

Row | concentration at 56 day ([2]; day 56, daily topical up to approx. 2.000 mg of 3% VPA medication (approx. 60 mg VPA)) [ng/mL] | concentration at 85 day ([2]; day 85, daily topical up to approx. 2.000 mg of 3% VPA medication (approx. 60 mg VPA)) [ng/mL] | SMILES | patients displaying for the first time a reduction of ≧30% in the total counts of all acne lesions ([1]; day 28) | patients displaying for the first time a reduction of ≧30% in the total counts of all acne lesions ([1]; day 85) | mean reduction of the number of acne lesions [1] | median counts of inflammatory lesions ([1]; end of treatment day 85, day 1 before treatment 30) [lesions] | median counts of non-inflammatory lesions ([1]; end of treatment day 85, day 1 before treatment 41) [lesions] | adverse events observed ([3]; patients treated topically, all resolved after end of study) | assessments of local tolerability graded "acceptable" [3] [%] | assessments of local tolerability graded "poor" [3] [%] | assessments of local tolerability graded "well" [3] [%]
1 | ≤ 2440 | ≤ 1590 | CCCC(CCC)C(=O)O [VPA, 2-propyl-pentanoic acid] | three | two | approx. 57% | 14.4 | 11.5 | mild to moderate administration site conditions | 23.8 | 4.8 | 61.9
2 | – | – | CC1=C(/C=C/C(C)=C/C=C/C(C)=C\C(=O)O)C(C)(C)CCC1 [isotretinoin] | three | two | approx. 54% | – | – | – | 40.5 | 11.9 | 38.1
